# Laboratory results taken from the supplement of paper PMC10307832.
# How the values were obtained:
# Assay in all cases: relative viability (nuclei count vs DMSO), 5 days (fraction); higher = more cells survive
# [1] = compound: O=C(CCCCCCC(=O)Nc1ccccc1)NO [Vorinostat] + CC1(C)CCC(c2ccc(Cl)cc2)=C(CN2CCN(c3ccc(C(=O)NS(=O)(=O)c4ccc(N[C@H](CCN5CCOCC5)CSc5ccccc5)c(S(=O)(=O)C(F)(F)F)c4)cc3)CC2)C1 [Navitoclax] (partner 0.5 µM)
# Summary of the method: (§1)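 Cells from lung cancer lines were seeded into 1536-well plates and, one day later, dosed by pin tool. Treatments were either a single drug or a fixed dose of an anchor drug with five library-drug doses (not always all listed) in √10 steps. After 5 days, nuclei were stained in a one-step fixation (final 0.05% Triton X-100, 1% formaldehyde, 1 ug/ml Hoechst) and counted on 4× images, and relative viability is the treated-to-vehicle nuclei ratio, as the median of duplicate plates.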
# [2] = compound: O=C(CCCCCCC(=O)Nc1ccccc1)NO [Vorinostat] + COc1cc2c(Oc3ccc(NC(=O)C4(C(=O)Nc5ccc(F)cc5)CC4)cc3F)ccnc2cc1OCCCN1CCOCC1 [Foretinib] (partner 0.25 µM)
# Summary of the method: as §1
# [3] = compound: O=C(CCCCCCC(=O)Nc1ccccc1)NO [Vorinostat] + CS(=O)(=O)CCNCc1ccc(-c2ccc3ncnc(Nc4ccc(OCc5cccc(F)c5)c(Cl)c4)c3c2)o1 [Lapatinib] (partner 2 µM)
# Summary of the method: as §1
# [4] = compound: O=C(CCCCCCC(=O)Nc1ccccc1)NO [Vorinostat] + Cc1cc(Nc2cc(N3CCN(C)CC3)nc(Sc3ccc(NC(=O)C4CC4)cc3)n2)n[nH]1 [Tozasertib] (partner 0.1 µM)
# Summary of the method: as §1
# [5] = compound: O=C(CCCCCCC(=O)Nc1ccccc1)NO [Vorinostat] + Cc1nc(NC(=O)N2CCC[C@H]2C(N)=O)sc1-c1ccnc(C(C)(C)C(F)(F)F)c1 [Alpelisib] (partner 2 µM)
# Summary of the method: as §1
Cell Line,relative viability ([1]; first compound 0.253 µM),relative viability ([1]; first compound 0.8 µM),relative viability ([1]; first compound 2.53 µM),relative viability ([1]; first compound 8 µM),relative viability ([2]; first compound 0.253 µM),relative viability ([2]; first compound 0.8 µM),relative viability ([2]; first compound 2.53 µM),relative viability ([2]; first compound 8 µM),relative viability ([3]; first compound 0.253 µM),relative viability ([3]; first compound 0.8 µM),relative viability ([3]; first compound 2.53 µM),relative viability ([3]; first compound 8 µM),relative viability ([4]; first compound 0.253 µM),relative viability ([4]; first compound 0.8 µM),relative viability ([4]; first compound 2.53 µM),relative viability ([4]; first compound 8 µM),relative viability ([5]; first compound 0.253 µM),relative viability ([5]; first compound 0.8 µM),relative viability ([5]; first compound 2.53 µM),relative viability ([5]; first compound 8 µM)
PC-3 [JPC-3],0.655,0.676,0.398,0.247,1.02,1.03,0.316,0.239,0.456,0.441,0.326,0.252,0.821,0.741,0.229,0.266,1.01,0.979,0.572,0.259
NCI-H441,0.464,0.536,0.164,0.184,0.874,0.971,0.59,0.175,–,–,–,–,0.607,0.529,0.3,0.194,0.754,0.616,0.289,0.11
NCI-H2342,–,–,–,–,0.975,1.07,0.587,0.385,–,–,–,–,0.436,0.322,0.335,0.262,–,–,–,–
NCI-H358,–,–,–,–,1.01,0.649,0.154,0.0783,0.642,0.566,0.276,0.199,0.128,0.11,0.0949,0.0726,1.05,0.939,0.226,0.177
NCI-H1793,0.534,0.521,0.186,0.118,1.03,0.679,0.257,0.204,0.588,0.613,0.375,0.162,0.316,0.256,0.179,0.125,0.905,0.96,0.519,0.251
SK-LU-1,0.785,0.528,0.109,0.111,0.881,0.829,0.385,0.137,1.05,0.738,0.449,0.16,0.303,0.186,0.143,0.101,1.14,0.721,0.488,0.178
ChaGo-K-1,1.01,0.92,0.582,0.276,1,0.863,0.559,0.189,–,–,–,–,0.221,0.213,0.191,0.164,–,–,–,–
NCI-H1563,–,–,–,–,0.999,0.833,0.574,0.52,1.01,0.796,0.403,0.564,–,–,–,–,0.93,0.8,0.642,0.555
NCI-H596,0.943,0.942,0.279,0.145,0.847,0.715,0.53,0.22,1.26,0.971,0.781,0.307,0.839,0.819,0.378,0.183,0.871,0.482,0.278,0.248
NCI-H2023,1.08,0.91,0.449,0.0939,1.13,0.82,0.31,0.0629,1.01,0.597,0.186,0.0723,0.364,0.215,0.11,0.0623,0.623,0.509,0.292,0.0757
NCI-H1437,1.11,0.908,0.166,0.118,1.25,1.22,0.546,0.171,0.846,0.476,0.153,0.0924,0.371,0.338,0.18,0.104,0.858,0.738,0.152,0.104
EKVX,0.955,1.13,0.588,0.143,0.859,0.931,0.714,0.138,0.217,0.209,0.173,0.107,0.39,0.275,0.194,0.11,0.992,0.951,0.4,0.14
HCC-44,0.986,0.967,0.542,0.137,–,–,–,–,1.03,0.985,0.508,0.111,1.1,0.296,0.184,0.141,0.896,0.587,0.186,0.0876
NCI-H2405,1.13,0.771,0.0779,0.0557,1.16,1.15,0.505,0.108,1.36,1.18,0.306,0.0576,0.718,0.692,0.339,0.117,1.01,0.835,0.16,0.0486
NCI-H1944,1.07,0.945,0.731,0.226,0.832,0.594,0.321,0.142,0.77,0.572,0.43,0.236,0.239,0.221,0.132,0.0956,0.849,0.566,0.409,0.151
NCI-H1734,0.943,0.76,0.269,0.0823,0.944,0.917,0.526,0.176,1.33,0.993,0.678,0.162,0.258,0.229,0.162,0.133,0.714,0.7,0.518,0.137
NCI-H322M,1.33,1.32,0.836,0.249,1.1,0.925,0.428,0.309,0.733,0.608,0.522,0.352,0.51,0.496,0.381,0.298,0.93,0.852,0.576,0.296
NCI-H2085,1.18,1.02,0.643,0.269,0.968,0.665,0.468,0.228,0.676,0.608,0.494,0.278,0.771,0.651,0.376,0.311,0.982,0.947,0.514,0.255
HOP-62,0.969,0.779,0.215,0.0581,1.03,1.1,0.365,0.122,1.25,0.572,0.516,0.0547,0.405,0.32,0.116,0.08,1.25,0.947,0.49,0.0804

Cell Line,relative viability ([1]; first compound 0.253 µM),relative viability ([1]; first compound 0.8 µM),relative viability ([1]; first compound 2.53 µM),relative viability ([1]; first compound 8 µM),relative viability ([2]; first compound 0.253 µM),relative viability ([2]; first compound 0.8 µM),relative viability ([2]; first compound 2.53 µM),relative viability ([2]; first compound 8 µM),relative viability ([3]; first compound 0.253 µM),relative viability ([3]; first compound 0.8 µM),relative viability ([3]; first compound 2.53 µM),relative viability ([3]; first compound 8 µM),relative viability ([4]; first compound 0.253 µM),relative viability ([4]; first compound 0.8 µM),relative viability ([4]; first compound 2.53 µM),relative viability ([4]; first compound 8 µM),relative viability ([5]; first compound 0.253 µM),relative viability ([5]; first compound 0.8 µM),relative viability ([5]; first compound 2.53 µM),relative viability ([5]; first compound 8 µM)
SK-MES-1,1.51,1.18,0.494,0.162,1.14,1.04,0.778,0.249,0.504,0.438,0.433,0.187,0.86,0.662,0.235,0.136,0.948,0.904,0.437,0.144
NCI-H2170,0.706,0.481,0.216,0.172,0.982,1.04,0.675,0.526,0.283,0.273,0.238,0.198,0.729,0.462,0.147,0.155,0.823,0.69,0.235,0.141
HCC-78,0.711,0.324,0.15,0.116,0.683,0.448,0.221,0.221,0.705,0.455,0.249,0.155,0.384,0.268,0.167,0.2,0.346,0.208,0.114,0.099
NCI-H1703,1.46,1.47,0.888,0.161,0.418,0.599,0.632,0.277,1.64,1.49,1.02,0.247,–,–,–,–,0.469,0.525,0.594,0.156
LCLC-97TM1,–,0.298,0.289,0.0998,1.06,0.957,0.394,0.153,–,0.784,1.49,0.115,0.19,0.158,0.159,0.149,–,0.26,0.158,0.114
IA-LM,0.791,0.597,0.235,0.0188,1.17,1.14,0.342,0.039,0.765,0.636,0.247,0.073,–,–,–,–,0.769,0.512,0.224,0.0622
UMC-11,0.277,0.154,0.0896,0.0856,1.12,0.465,0.121,0.103,1.05,0.238,0.137,0.0786,0.195,0.164,0.147,0.129,1.02,0.852,0.221,0.0659
CAL-12T,1.16,1.14,0.56,0.101,1.34,1.14,0.721,0.119,0.682,0.649,0.438,0.111,0.446,0.246,0.162,0.109,1.18,1.07,0.462,0.0781
A-427,1.06,0.906,0.812,0.171,1.21,1.13,0.561,0.191,1.1,1.05,0.929,0.23,0.182,0.168,0.134,0.0919,1.1,1.1,0.889,0.146
NCI-H522,–,–,–,–,–,–,–,–,–,–,–,–,0.644,0.457,0.302,0.141,–,–,–,–
A549,1.31,1.08,0.352,0.0351,0.929,0.478,0.0393,0.0151,1.02,0.572,0.168,0.0602,–,–,–,–,0.861,0.802,0.104,0.0282
NCI-H1792,0.763,0.601,0.392,0.0388,–,–,–,–,0.964,0.904,0.907,0.0753,–,–,–,–,0.742,0.55,0.207,0.0419
SW 900,–,–,–,–,0.925,0.927,0.644,0.111,–,–,–,–,0.584,0.315,0.213,0.113,–,–,–,–
ABC-1,–,–,–,–,1.07,0.834,0.358,0.102,1.14,1.12,1.13,0.27,0.203,0.198,0.18,0.112,1.02,0.636,0.354,0.161
NCI-H661,–,–,–,–,1.11,0.843,0.447,0.298,0.549,0.682,0.275,0.161,0.342,0.262,0.249,0.269,1.23,1.09,0.491,0.171
NCI-H1650,1.12,0.851,0.385,0.144,1.1,1,0.648,0.14,0.803,0.484,0.287,0.118,0.478,0.293,0.168,0.152,–,–,–,–
LCLC-103H,–,–,–,–,0.924,0.801,0.243,0.135,–,–,–,–,0.377,0.27,0.162,0.127,1.23,0.97,0.58,0.184
NCI-H650,–,–,–,–,0.998,0.907,0.213,0.151,1.15,0.489,0.196,0.177,0.686,0.421,0.154,0.136,1.43,0.933,0.191,0.146
